Laboratory results from the NIST ThermoML archive (doi:10.1016/j.jct.2017.09.005).
Values joined by “and” are separate entries in the source; they are usually repeats but may differ in a detail not shown here. Equal values may be shown once.

Columns and labels:
[1] = molar heat capacity at saturation pressure; settings: Liquid, Small sample (50 mg) DSC
[2] = for vapor or sublimation pressure: Twin ebulliometer; for molar entropy: 101.33 kPa, Small sample (50 mg) DSC; for Critical density: DSC; for Critical temperature: DTA

Cc1c[nH]c(C)c1 [2,4-dimethyl-1H-pyrrole]
Settings	Critical density [kg/m3]	Critical temperature [K]	molar heat capacity [J/K/mol]
[1], 440 K	–	–	241.31
[1], 460 K	–	–	247.84
[1], 480 K	–	–	253.77
[1], 500 K	–	–	259.54
[1], 520 K	–	–	265.15
[1], 540 K	–	–	270.8
[1], 560 K	–	–	276.99
[1], 580 K	–	–	284.79
[1], 600 K	–	–	297.37
[2], Liquid	285.8	653	–

[2]
Settings	mass density [kg/m3]
323.14 K, Liquid, Vibrating tube method	895.5
348.13 K, Liquid, Vibrating tube method	874.8
373.12 K, Liquid, Vibrating tube method	853
398.12 K, Liquid, Vibrating tube method	830.6
423.11 K, Liquid, Vibrating tube method	807.2
448.11 K, Liquid, Vibrating tube method	781.3
645.3 K, Gas, From heat capacities measured by DSC	159
648.6 K, Gas, From heat capacities measured by DSC	220
649 K, Gas, From heat capacities measured by DSC	248
650 K, Liquid, From heat capacities measured by DSC	413
656.5 K, Liquid, From heat capacities measured by DSC	292

[2], Liquid
Settings	molar entropy [J/K/mol]	vapor or sublimation pressure
338.25 K	–	1.995 kPa
343.72 K	–	2.666 kPa
351.75 K	–	4 kPa
357.76 K	–	5.337 kPa
366.62 K	–	7.992 kPa
373.28 K	–	10.66 kPa
378.68 K	–	13.34 kPa
384.24 K	–	16.66 kPa
388.88 K	–	19.93 kPa
394.96 K	–	25.02 kPa and 25.01 kPa
401.09 K	–	31.17 kPa
407.25 K	–	38.57 kPa
413.43 K	–	47.37 kPa
419.66 K	–	57.81 kPa
425.98 K	–	70.24 kPa
432.21 K	–	84.53 kPa
438.54 K	–	101.33 kPa
440 K	306.38	–
444.91 K	–	120.8 kPa
451.31 K	–	143.27 kPa
457.75 K	–	169.05 kPa
460 K	317.25	–
464.23 K	–	198.53 kPa
470.74 K	–	232.06 kPa
477.28 K	–	270.07 kPa
480 K	327.92	–
500 K	338.4	–
520 K	348.69	–
540 K	358.8	–
560 K	368.76	–
580 K	378.61	–
600 K	388.45	–

Cc1ccc(C)[nH]1 [2,5-dimethyl-1H-pyrrole]
Settings	Critical density [kg/m3]	Critical temperature [K]	molar heat capacity [J/K/mol]
[1], 380 K	–	–	227.58
[1], 400 K	–	–	234.06
[1], 420 K	–	–	240.2
[1], 440 K	–	–	246
[1], 460 K	–	–	251.53
[1], 480 K	–	–	256.87
[1], 500 K	–	–	262.15
[1], 520 K	–	–	267.56
[1], 540 K	–	–	273.45
[1], 560 K	–	–	280.39
[1], 580 K	–	–	289.72
[1], 600 K	–	–	303.59
[2], Liquid	288.6	662	–

[2]
Settings	mass density [kg/m3]
323.14 K, Liquid, Vibrating tube method	910.8
348.13 K, Liquid, Vibrating tube method	890.3
373.12 K, Liquid, Vibrating tube method	867.7
398.12 K, Liquid, Vibrating tube method	843.9
423.11 K, Liquid, Vibrating tube method	819.6
448.11 K, Liquid, Vibrating tube method	793.5
473.11 K, Liquid, Vibrating tube method	766.5
498.11 K, Liquid, Vibrating tube method	738.1
508.11 K, Liquid, Vibrating tube method	725.6
650 K, Gas, From heat capacities measured by DSC	144
660.8 K, Gas, From heat capacities measured by DSC	257
661.5 K, Liquid, From heat capacities measured by DSC	334
661.7 K, Liquid, From heat capacities measured by DSC	299

[2], Liquid
Settings	molar entropy [J/K/mol]	vapor or sublimation pressure [kPa]
341.46 K	–	1.997
354.8 K	–	3.994
360.76 K	–	5.333
369.58 K	–	8.007
376.17 K	–	10.67
380 K	263.56	–
381.49 K	–	13.34
386.98 K	–	16.66
391.56 K	–	19.93
397.58 K	–	25.02
400 K	275.4	–
403.63 K	–	31.18
409.71 K	–	38.56
415.81 K	–	47.35
420 K	286.97	–
421.96 K	–	57.8
428.14 K	–	70.1
434.36 K	–	84.53
440 K	298.28	–
440.62 K	–	101.35
446.89 K	–	120.78
453.2 K	–	143.21
459.55 K	–	169.03
460 K	309.34	–
465.94 K	–	198.49
472.36 K	–	232.03
478.82 K	–	270.08
480 K	320.16	–
500 K	330.75	–
520 K	341.13	–
540 K	351.34	–
560 K	361.4	–
580 K	371.4	–
600 K	381.43	–
